# What was measured:
# [1] = test system: Rats; experiment: test (c): metabolic rate (oxygen consumption) in cold-adapted rats; assay type: in vivo; details: at 1mgkg⁻¹ p.o., closed-circuit oxygen consumption apparatus
# [2] = test system: Rats; experiment: test (b): heart rate in rats adapted to a thermoneutral environment (D500 dose and selectivity index)
# [3] = test system: BAT mitochondria; experiment: test (a): GDP binding in brown adipose tissue (BAT) mitochondria of cold-adapted rats as a measure of thermogenic activation; assay type: in vivo; details: Rattus norvegicus, sc, 1 h, sub-cutaneous (s.c), BAT removed one hour after dosing, relative to isoprenaline 1 mg/kg, read-out: ED₅₀ (dose necessary to produce 50% of the isoprenaline effect on GDP binding)
SMILES,increase in metabolic rate [1] [ml O₂ min⁻¹Kg ^0.75],"SI (selectivity index, ratio of D₅₀₀ to ED₅₀ in test (a)) ([2]; s.c)",ED50 [3] [mg/kg],"SI (selectivity index, ratio of D₅₀₀ to ED₅₀ in test (a)) ([2]; route not stated)"
"COC(=O)COc1ccc(CCNCC(O)COc2ccsc2)cc1 (racemic) [Example 1, Methyl 4-[2-(2-hydroxy-3-(3-thienyloxy)propylamino)ethyl]phenoxyacetate]",5.2,> 100,0.2,
"CC(C)NCC(O)c1ccc(O)c(O)c1 (stereo not shown) [isoprenaline, reference compound]",,,,0.06
